Laboratory results taken from patent US11371099B2, “HEATR1 as a marker for chemoresistance” (MAYO FOUNDATION FOR MEDICAL EDUCATION AND RESEARCH, priority 2015, dated 2022).

Assays:
[1] = tested on: SU86.86, ASPC-1, and PANC-1 cells; experiment: MTS cell survival assay in pancreatic cancer cells transfected with control or HEATR1 siRNA/shRNA; assay type: cell-based, human; conditions: HEATR1 siRNA or shRNA vs control
Protocol: FIG. 1. […] (A) Cells were transfected with indicated siRNA and treated with Gemcitabine. Cell survival was determined. […] (C) SU86.86 cells were transfected with indicated siRNA and treated. Cell survival was determined.
(A) PANC-1 and ASPC-1 cells stably expressing control or HEATR1 shRNA treated with gemcitabine. Cell survival was determined as described in FIG. 1A. The data presented are mean±SD for six independent experiments. […] (B) PANC-1 and ASPC-1 cells were transfected with control or HEATR1 siRNA and then treated with the indicated drugs. Cell survival was determined as described in A. The data presented are mean±SD for six independent experiments.
Human pancreatic cancer cell lines SU86.86, ASPC-1, and PANC-1 were purchased from ATCC in 2014. The identities of these cell lines were confirmed by the medical genome facility at Mayo Clinic Center using short tandem repeat profiling upon receipt. The cell lines were maintained in RPMI 1640 with 10% FBS. HEATR1 cDNA was purchased from Thermo Scientific and full length and mutants were subcloned into pIRES-EGFP. PP2A-Aα, B55α, B56β, Cα were purchased from addgene and subcloned into HA-pcmv and pGex4T-1. HEATR1 siRNA and shRNA were from Dharmacon and Sigma, respectively.
Gemcitabine was from Eli Lilly (Indianapolis, Ind.). Paclitaxel, SN-38, mitomycin c, oxaliplatin and etopside were from Sigma-Aldrich (St. Louis, Mo.). […] Ctrl (Control) or HEATR1 siRNA or shRNA were transfected, and the growth-inhibitory effect was performed as described previously (21). In one embodiment, a MTS assay may be performed by a MTS Cell Proliferation Assay Kit (Colorimetric) (197010); a colorimetric sensitive quantification of viable cells in proliferation and cytotoxicity assays. The assay is based on the reduction of MTS tetrazolium compound by viable cells to generate a colored formazan product that is soluble in cell culture media.

[2] = patients with advanced solid tumors; cited from earlier work
pancreatic tumor = conditions: dinaciclib combined with MK-2206; cited from earlier work
Akt [3] = conditions: cited from earlier work
[4] = tested on: Akt phospho-Thr308 and phospho-Ser473; conditions: in vivo, both sensitive and resistant tumors; cited from earlier work
SU86.86 cells = experiment: Apoptosis (cleaved PARP1 western blot) in cells expressing control or HEATR1 shRNA; assay type: cell-based, human; conditions: control cells vs HEATR1 shRNA cells; 10 μM, 48 hours
Protocol: (A) SU86.86 cells stably expressing control or HEATR1 shRNA treated with gemcitabine (10 μM). Cell lysate were collect at 48 hours and western blotting was performed with indicated antibodies. (B) Cells stably expressing control or HEATR1 shRNA were seeded in each well (5×10^4/well) and cell numbers were counted every 24 hour. Data are represented as the mean±SD of four independent experiments. We prepared cell lysates, performed immunoprecipitation, and immunoblotting as previously described. In brief, cells were lysed with NETN buffer (20 mM Tris-HCl, pH 8.0, 100 mM NaCl, 1 mM EDTA, 0.5% Nonidet P-40) containing 50 mM b-glycerophosphate, 10 mM NaF, and […] each of pepstatin A and aprotinin. Whole cell lysates were pulse-sonicated and obtained by centrifugation. Whole cell lysates were incubated with 2 μg of antibody and protein A or protein G Sepharose beads (Amersham Biosciences) for 2 hr or overnight at 4° C. The immunocomplexes were then washed with NETN buffer for three times and separated by SDS-PAGE. Immunoblotting was performed following standard procedures. GST fusion proteins were bound to glutathione-Sepharose overnight at 4° C. The beads were washed with PBS four times and incubated with cell lysates for 1 h at 4° C. After washing with NETN for three times, the bound proteins were separated by SDS-PAGE and immunoblotted with indicated antibodies.

PANC-1 xenograft tumors = experiment: Tumor xenograft study, PANC-1 cells stably expressing Ctrl or HEATR1 shRNA; assay type: in vivo, mouse; conditions: Gemcitabine 50 mg/kg i.p. every 3 days; HEATR1 shRNA vs Ctrl
Protocol: Xenograft tumors were dissected and tumor weights were measured after mice were sacrificed (C). ANOVA analysis was performed (Mann-Whitney test) +P<0.05, ++P<0.01 (Ctrl vs KD). […] Representative photographs of indicated xenograft tumors were shown in (E). Female athymic nu/nu mice were obtained from the National Cancer Institute. Experiments were performed under the approval of the Institutional Animal Care and Use Committee at Mayo Clinic. PANC-1 cells stably expressing Ctrl and HEATR1 shRNA were injected subcutaneously in mouse flanks (10^6 cells/mouse flank). Tumor volumes were measured every three days. […] After sacrificing the mice, tumors were surgically removed and weighted.

[5] = tested on: Akt phosphorylation at Thr308; experiment: Western blot of Akt phosphorylation after serum starvation and serum addition; assay type: cell-based, human; conditions: SU86.86 cells, pretreated 5 nM
Protocol: (A) Intracellular co-localization of HEATR1 and AKT were observed by using confocal microscopy in Su86.86, PANC-1 and ASPC-1 cells. (B) Cell lysates were subjected to immunoprecipitation with control IgG or anti-HEATR1 antibodies. The immunoprecipitates were then blotted with indicated antibodies. (C) Cells were transfected with control or HEATR1 siRNA, and the interaction between Akt and PDK1 was examined. (D) SU86.86 Cells transfected with control or HEATR1 siRNA were serum starved for 16 hours (0.1% serum), pretreated with DMSO or okadaic acid (5 nM) and then serum was added. Whole-cell lysates were harvested at indicated time and western blotting was performed with indicated antibodies.
We prepared cell lysates, performed immunoprecipitation, and immunoblotting as previously described. In brief, cells were lysed with NETN buffer (20 mM Tris-HCl, pH 8.0, 100 mM NaCl, 1 mM EDTA, 0.5% Nonidet P-40) containing 50 mM b-glycerophosphate, 10 mM NaF, and […] each of pepstatin A and aprotinin. Whole cell lysates were pulse-sonicated and obtained by centrifugation. Whole cell lysates were incubated with 2 μg of antibody and protein A or protein G Sepharose beads (Amersham Biosciences) for 2 hr or overnight at 4° C. The immunocomplexes were then washed with NETN buffer for three times and separated by SDS-PAGE. Immunoblotting was performed following standard procedures. […]

Akt [6] = conditions: cited from earlier work; remark: listed apart in the source

CC[C@@]1(O)C(=O)OCc2c1cc1n(c2=O)Cc2cc3ccccc3nc2-1 [Camptothecin]
Cell survival / resistance to drug in cells with HEATR1 knockdown versus control [1]: significantly resistant

NC1(c2ccc(-c3nc4ccn5c(=O)[nH]nc5c4cc3-c3ccccc3)cc2)CCC1 [MK-2206]
Tolerability [2]: well tolerated | Pancreatic tumor growth and metastases (pancreatic tumor): dramatically block

CCCCCCCCCCCCc1ccc(S(=O)(=O)Nc2nncs2)cc1 [PHT-427]
Akt activity in resistant cancer cells (Akt [3]): increase in Akt activity | Akt phospho-Thr308 and phospho-Ser473 in tumors [4]: decreased

Nc1ccn([C@@H]2O[C@H](CO)[C@@H](O)C2(F)F)c(=O)n1 [Gemcitabine]
Apoptosis activity induced by drug (SU86.86 cells): stronger apoptosis activity in control cells | Cell survival / resistance to drug in cells with HEATR1 knockdown versus control [1]: increased resistance | Tumor response to drug in xenografts with HEATR1 downregulation (PANC-1 xenograft tumors): resistance to Gemcitabine

C=C1[C@@H](O)[C@@H]2O[C@]3(CC[C@H](/C=C/[C@@H](C)[C@@H]4CC(C)=C[C@@]5(O[C@H](C[C@@](C)(O)C(=O)O)CC[C@H]5O)O4)O3)CC[C@H]2O[C@@H]1[C@@H](O)C[C@H](C)[C@H]1O[C@@]2(CCCCO2)CC[C@H]1C [okadaic acid]
Akt phosphorylation at Thr308 [5]: significantly increased

S=C=NCc1ccccc1 [BITC, Benzyl isothiocyanate]
Phosphorylation of Akt at both Ser-473 and Ser-308 (Akt [6]): suppresses

CC(=O)O[C@H]1C(=O)[C@@]2(C)[C@H]([C@H](OC(=O)c3ccccc3)[C@]3(O)C[C@H](OC(=O)[C@H](O)[C@@H](NC(=O)c4ccccc4)c4ccccc4)C(C)=C1C3(C)C)[C@]1(OC(C)=O)CO[C@@H]1C[C@@H]2O [paclitaxel]
Cell survival / resistance to drug in cells with HEATR1 knockdown versus control [1]: significantly resistant

CCc1c2c(nc3ccc(O)cc13)-c1cc3c(c(=O)n1C2)COC(=O)[C@]3(O)CC [SN-38]
Cell survival / resistance to drug in cells with HEATR1 knockdown versus control [1]: significantly resistant

O=C1[O][Pt]2([NH][C@@H]3CCCC[C@H]3[NH]2)[O]C1=O [oxaliplatin]
Cell survival / resistance to drug in cells with HEATR1 knockdown versus control [1]: significantly resistant

COc1cc([C@@H]2c3cc4c(cc3[C@@H](O[C@@H]3O[C@@H]5CO[C@@H](C)O[C@H]5[C@H](O)[C@H]3O)[C@H]3COC(=O)[C@H]23)OCO4)cc(OC)c1O [etopside]
Cell survival / resistance to drug in cells with HEATR1 knockdown versus control [1]: significantly resistant

CO[C@@]12[C@H](COC(N)=O)C3=C(C(=O)C(C)=C(N)C3=O)N1C[C@@H]1N[C@@H]12 [mitomycin c]
Cell survival / resistance to drug in cells with HEATR1 knockdown versus control [1]: significantly resistant
